Laboratory results reported in patent US10556865B2, “Synergistic herbicidal composition containing certain pyridine or pyrimidine carboxylic acids and certain cereal and rice herbicides” (Dow AgroSciences, LLC, priority 2007, dated 2020).
Values joined by “and” are separate entries in the source; they are usually repeats but may differ in a detail not shown here. Identical values can stand only once.

How the values were obtained:
Type in all cases: in vivo
[1] = tested on: Fimbristylis miliacea (L.) VAHL (FIMMI); assay: Postemergence herbicidal mixtures for weed control in direct seeded rice (greenhouse, visual % injury); conditions: for % Injury Ob: FIMMI
[2] = tested on: Ischaemum rugosum SALISB. (ISCRU); assay: as above; conditions: ISCRU
[3] = tested on: Cyperus esculentus L. (CYPES); assay: as above; conditions: CYPES
[4] = tested on: Brachiaria platyphylla (BRISEB.) NASH (BRAPP); assay: as above
[5] = tested on: Scirpus maritimus L. (SCPMA); assay: as above; conditions: for % Injury Ob: SCPMA
[6] = tested on: Polygonum pensylvanicum L. (POLPY); assay: as above; conditions: for % Injury Ob: POLPY
Cyperus iria L. (CYPIR) = assay: as above; conditions: CYPIR
Scirpus species (SCPSS) = assay: Herbicidal mixtures for weed control in transplanted paddy rice (in-water application, visual % injury); conditions: SCPJU; 35 g/ha alone
Protocol: (§1) Weed seeds or nutlets of the desired test plant species were planted in puddled soil (mud) prepared by mixing a non-sterilized mineral soil (28 percent silt, 18 percent clay, and 54 percent sand, with a pH of about 7.3 to 7.8 and an organic matter content of about 1.0 percent) and water at a ratio of 100 kilograms (kg) of soil to 19 L of water. The prepared mud was dispensed in 250 mL aliquots into 480 mL non-perforated plastic pots with a surface area of 91.6 square centimeters leaving a headspace of 3 centimeters in each pot. Rice seeds were planted in Sun Gro MetroMix® 306 planting mixture, which typically has a pH of 6.0 to 6.8 and an organic matter content of about 30 percent, in plastic plug trays. Seedlings at the second or third leaf stage of growth were transplanted into 650 mL of mud contained in 960 mL non-perforated plastic pots with a surface area of 91.6 cm^2 4 days prior to herbicide application. The paddy was created by filling the 3 centimeter headspace of the pots with water. […] The plants were grown for 4-14 days in a greenhouse with an approximate 14 hr photoperiod which was maintained at about 29° C. during the day and 26° C. during the night. Nutrients were added as Osmocote (17:6:10, N:P:K+minor nutrients) at 2 g per cup. Water was added on a regular basis to maintain the paddy flood, and supplemental lighting was provided with overhead metal halide 1000-Watt lamps as necessary. The plants were employed for testing when they reached the second or third true leaf stage.
(§2) Treatments consisted of esters or salts of compound A, compound C, or compound D and various herbicidal components alone and in combination. For technical grade compounds, a weighed amount, determined by the highest rate to be tested, was placed in an individual 120 mL glass vial and was dissolved in 20 mL of acetone to obtain concentrated stock solutions. […] The concentrated stock solutions obtained were diluted with 20 mL of an aqueous mixture containing 2.5% Agri-dex crop oil concentrate (v/v). For formulated compounds, a measured amount, determined by the highest rate to be tested, was placed in an individual 120 mL glass vial and was dissolved in 20 mL of 2.5% (v/v) Agri-dex crop oil concentrate to obtain concentrated stock solutions. The concentrated stock solutions obtained were diluted with 20 mL of acetone. Applications were made by injecting an appropriate amount of the stock solution into the aqueous layer of the paddy. Control plants were treated in the same manner with the solvent blank. All treated plant material received the same concentration of acetone and crop oil concentrate.
(§3) Forms of compounds A, C, and D were applied on an acid equivalent basis. Other herbicidal components were applied on an active ingredient basis and included acetolactate synthase (ALS)-inhibiting herbicides penoxsulam (triazolopyrimidine chemical class) applied as Grasp SC, […] (sulfonylurea chemical class) applied as Sirius G, and bensulfuron-methyl (sulfonylurea chemical class) applied as Londax; acetyl CoA carboxylase (ACCase) inhibiting herbicides cyhalofop-butyl applied as Clincher G and fenoxaprop-p-ethyl applied as Ricestar HT; auxinic herbicide quinclorac applied as Facet 75 DF; phytoene desaturase inhibiting herbicide norflurazon; and p-hydroxyphenylpyruvate dioxygenase (HPPD) inhibiting herbicide sulcotrione applied as Mikado.
(§4) The treated plants and control plants were placed in a greenhouse as described above and water was added as needed to maintain a paddy flood. After 3 weeks the condition of the test plants as compared with that of the untreated plants was determined visually and scored on a scale of 0 to 100 percent where 0 corresponds to no injury and 100 corresponds to complete kill.

[7] = tested on: Fimbristylis miliacea (L.) VAHL (FIMMI); assay: as above; conditions: 35 g/ha alone
Protocol: as §1, §2, §3, §4

[8] = tested on: Canada thistle (Cirsium arvense L; CIRAR); assay: Postemergence herbicidal activity of mixtures in cereal crops (greenhouse, visual injury); conditions: 3.75 g/ha
Summary of the method: (§5)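 Weeds grown in greenhouse (~14 h photoperiod, ~18/17 °C day/night) to second–third true leaf stage, sprayed postemergence with compound and second cereal herbicide alone or combined; solvent-blank controls. Injury scored visually after 20-22 days, 0–100% (complete kill); expected mixture activity = A+B−(A×B/100).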

[9] = tested on: green foxtail (Setaria viridis L; SETVI); assay: as above; conditions: 2.5 g/ha, Table 7
Summary of the method: (§6)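 Injury ratings (0–100%) taken 20–22 days post-spray versus solvent-blank controls. Treatment: 187 L/ha track spray, 2nd–3rd leaf plants, Compound A/B with second cereal herbicide.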

[10] = tested on: Italian ryegrass (Lolium multiflorum L; LOLMU); assay: as above; conditions: 2.5 g/ha, Table 14
Summary of the method: as §6

[11] = tested on: blackgrass (Alopecurus myosuroides L; ALOMY); assay: Postemergence herbicidal activity of mixtures in cereal crops (greenhouse, visual injury 0-100 percent after 20-22 days); conditions: 2.5 g/ha
Protocol: (§7) Seeds of the desired test plant species were planted in Sun Gro MetroMix® 306 planting mixture, which typically has a pH of 6.0 to 6.8 and an organic matter content of about 30 percent, in plastic pots with a surface area of 103.2 square centimeters (cm^2). […] The plants were grown for 7-36 days in a greenhouse with an approximate 14 hour photoperiod which was maintained at about 18° C. during the day and 17° C. during the night. Nutrients and water were added on a regular basis and supplemental lighting was provided with overhead metal halide 1000-Watt lamps as necessary. The plants were employed for testing when they reached the second or third true leaf stage.
(§8) Treatments consisted of compound (as listed in Tables 1 through 64) and a second cereal herbicide alone and in combination. […] The concentrated stock solutions were diluted to 1.5 mg ai/mL with the addition of 2 volumes of an aqueous mixture containing acetone, water, isopropyl alcohol, DMSO, Agri-dex crop oil concentrate, and Triton® X-77 surfactant in a 64.7:26.0:6.7:2.0:0.7:0.01 v/v ratio. A dilution solution was prepared by mixing 1 volume of 97:3 v/v acetone/DMSO and 2 volumes of an aqueous mixture containing acetone, water, isopropyl alcohol, DMSO, Agri-dex crop oil concentrate, and Triton® X-77 surfactant in a 64.7:26.0:6.7:2.0:0.7:0.01 v/v ratio. Compound requirements are based upon a 12 mL application volume at a rate of 187 liters per hectare (L/ha). […] Formulated compounds were applied to the plant material with an overhead Mandel track sprayer equipped with 8002E nozzles calibrated to deliver 187 L/ha over an application area of 0.503 square meters (m^2) at a spray height of 18 inches […] above average plant canopy. Control plants were sprayed in the same manner with the solvent blank.
as §4, with “watered by sub-irrigation” for “water was added as needed”, “prevent wash-off of the test compounds.” for “maintain a paddy flood.”, “20-22 days,” for “3 weeks”, “control” for “untreated”
(§9) Colby's equation was used to determine the herbicidal effects expected from the mixtures (Colby, S. R. 1967. Calculation of the synergistic and antagonistic response of herbicide combinations. Weeds 15:20-22.).
(§10) The following equation was used to calculate the expected activity of mixtures containing two active ingredients, A and B: Expected=A+B−(A×B/100)

[12] = tested on: windgrass (Apera spica-venti L; APESV); assay: Postemergence herbicidal activity of mixtures in cereal crops (greenhouse, visual injury); conditions: Apera spica-venti, post-emergence, 2.5 g/ha, Table 14; read-out: APESV Ob
Protocol: as §7, §8
as §4, with “watered by sub-irrigation” for “water was added as needed”, “prevent wash-off of the test compounds.” for “maintain a paddy flood.”, “20-22 days,” for “3 weeks”, “control” for “untreated”
as §9, §10

[13] = tested on: wild oats (Avena fatua L; AVEFA); assay: as above; conditions: 2.5 g/ha, Table 14
Protocol: as §7, §8
as §4, with “watered by sub-irrigation” for “water was added as needed”, “prevent wash-off of the test compounds.” for “maintain a paddy flood.”, “20-22 days,” for “3 weeks”, “control” for “untreated”
as §9, §10

[14] = tested on: bird's-eye speedwell (Veronica persica L; VERPE); assay: as above; conditions: 70 g/ha alone
Summary of the method: as §5

[15] = tested on: wild pansy (Viola tricolor L; VIOTR); assay: as above; conditions: 70 g/ha alone
Summary of the method: as §5

[16] = tested on: chickweed (Stellaria media L; STEME); assay: as above; conditions: 70 g/ha alone
Summary of the method: as §6

[17] = tested on: wild buckwheat (Polygonum convolvulus L; POLCO); assay: as above; conditions: 70 g/ha alone
Summary of the method: as §6

[18] = tested on: lady's-thumb (Polygonum persicaria L; POLPE); assay: as above; conditions: 70 g/ha alone
Summary of the method: as §6

Cyperus species (CYPSS) = assay: Herbicidal mixtures for weed control in transplanted paddy rice (in-water application, visual % injury); conditions: CYPES = Cyperus esculentus
Protocol: Weed seeds or nutlets of the desired test plant species were planted in puddled soil (mud) prepared by mixing a non-sterilized mineral soil (28 percent silt, 18 percent clay, and 54 percent sand, with a pH of about 7.3 to 7.8 and an organic matter content of about 1.0 percent) and water at a ratio of 100 kilograms (kg) of soil to 19 L of water. The prepared mud was dispensed in 250 mL aliquots into 480 mL non-perforated plastic pots with a surface area of 91.6 square centimeters leaving a headspace of 3 centimeters in each pot. Rice seeds were planted in Sun Gro MetroMix® 306 planting mixture, which typically has a pH of 6.0 to 6.8 and an organic matter content of about 30 percent, in plastic plug trays. Seedlings at the second or third leaf stage of growth were transplanted into 650 mL of mud contained in 960 mL non-perforated plastic pots with a surface area of 91.6 cm^2 4 days prior to herbicide application. The paddy was created by filling the 3 centimeter headspace of the pots with water. When required to ensure good germination and healthy plants, a fungicide treatment and/or other chemical or physical treatment was applied. The plants were grown for 4-14 days in a greenhouse with an approximate 14 hr photoperiod which was maintained at about 29° C. during the day and 26° C. during the night. Nutrients were added as Osmocote (17:6:10, N:P:K+minor nutrients) at 2 g per cup. Water was added on a regular basis to maintain the paddy flood, and supplemental lighting was provided with overhead metal halide 1000-Watt lamps as necessary. The plants were employed for testing when they reached the second or third true leaf stage.
as §2, §3, §4

## C=CCOC(=O)c1nc(-c2ccc(Cl)c(OC)c2F)cc(N)c1Cl [Compound A Allyl]
[1]; 8.75 g/ha alone
  % Injury Ob: 0%
[1]; 35 g/ha alone
  % Injury Ob: 60%
[1]; alone 17.5 g/ha
  % Injury FIMMI Ob: 40%
[2]; 8.75 g/ha alone
  % Injury Ob: 10%
[2]; 17.5 g/ha alone
  % Injury Ob: 40%
[3]; 17.5 g/ha alone
  % Injury Ob: 50%
[3]; 35 g/ha alone
  % Injury Ob: 95%
[4]; 4.38 g/ha alone
  % Injury Ob: 80%
[4]; 8.75 g/ha alone
  % Injury Ob: 60% and 80% and 100%
[4]; 17.5 g/ha alone
  % Injury Ob: 99%
[5]; 17.5 g/ha alone
  % Injury Ob: 10%
[5]; 35 g/ha alone
  % Injury Ob: 20%
[5]; alone 17.5 g/ha
  % Injury SCPMA Ob: 0%
[6]; 17.5 g/ha alone
  % Injury Ob: 90%
[6]; 35 g/ha alone
  % Injury Ob: 70%
[6]; alone 17.5 g/ha
  % Injury POLPY Ob: 70%
Cyperus iria L. (CYPIR); 17.5 g/ha alone
  % Injury Ob: 35%
Cyperus iria L. (CYPIR); 35 g/ha alone
  % Injury Ob: 85%

## CCOC(=O)[C@@H](C)Oc1ccc(Oc2nc3ccc(Cl)cc3o2)cc1 [Fenoxaprop-p-ethyl]
Scirpus species (SCPSS)
  % Injury Ob: 0%
[7]
  % Injury Ob: 0%
[1]; alone 35 g/ha
  % Injury FIMMI Ob: 0%
[5]; alone 35 g/ha
  % Injury SCPMA Ob: 0%
[6]; alone 35 g/ha
  % Injury POLPY Ob: 0%

## COc1nc(C)nc(NC(=O)NS(=O)(=O)c2cc(I)ccc2C(=O)O)n1 [Iodosulfuron, 4-iodo-2-[[[[(4-methoxy-6-methyl-1,3,5-triazin-2-yl)amino]carbonyl]amino]sulfonyl]benzoic acid, reference compound]
[8]
  CIRAR Ob: 50%
[9]
  SETVI Ob: 0%
[10]
  LOLMU Ob: 53%
[11]; Table 7
  ALOMY Ob: 50%
[11]; Table 14
  ALOMY Ob: 50%
[12]
  pest or weed control at 2.5 g/ha: 68%
[13]
  AVEFA Ob: 35%

## CCCCC(CC)COC(=O)COc1ccc(Cl)cc1C (stereo not drawn) [MCPA EHE]
[1]; 70 g/ha alone
  % Injury Ob: 0%
[1]; 140 g/ha alone
  % Injury Ob: 0%
[2]; 70 g/ha alone
  % Injury Ob: 0%
[2]; 140 g/ha alone
  % Injury Ob: 0%
[4]; 70 g/ha alone
  % Injury Ob: 0%
[4]; 140 g/ha alone
  % Injury Ob: 0%

## Cc1cc(Cl)ccc1OCC(=O)O [MCPA]
[14]
  VERPE Ob: 10%
[15]
  VIOTR Ob: 17%
[16]
  STEME Ob: 7%
[17]
  POLCO Ob: 7%
[18]
  POLPE Ob: 23%

## CNc1cnn(-c2cccc(C(F)(F)F)c2)c(=O)c1Cl [Norflurazon]
[1]; 560 g/ha alone
  % Injury Ob: 0%
[3]; 560 g/ha alone
  % Injury Ob: 0%
[4]; 70 g/ha alone
  % Injury Ob: 0%
[5]; 560 g/ha alone
  % Injury Ob: 60%
Cyperus species (CYPSS); Norflurazon 70 g/ha alone (Compound A Methyl half)
  % Injury CYPES Ob: 0%
Cyperus species (CYPSS); Norflurazon 70 g/ha alone (Compound A TEA half)
  % Injury CYPES Ob: 0%
Cyperus iria L. (CYPIR); 560 g/ha alone
  % Injury Ob: 0%
